The record followed here is patent US20040248919A1, “Fluorinated trienes and their use as rxr modulators” (priority 2001, published 2004).

The target in data set [1] is T1, RXRα:RXRα homodimer (Homo sapiens, UniProt P19793).
T1 sequence (P19793 1-462): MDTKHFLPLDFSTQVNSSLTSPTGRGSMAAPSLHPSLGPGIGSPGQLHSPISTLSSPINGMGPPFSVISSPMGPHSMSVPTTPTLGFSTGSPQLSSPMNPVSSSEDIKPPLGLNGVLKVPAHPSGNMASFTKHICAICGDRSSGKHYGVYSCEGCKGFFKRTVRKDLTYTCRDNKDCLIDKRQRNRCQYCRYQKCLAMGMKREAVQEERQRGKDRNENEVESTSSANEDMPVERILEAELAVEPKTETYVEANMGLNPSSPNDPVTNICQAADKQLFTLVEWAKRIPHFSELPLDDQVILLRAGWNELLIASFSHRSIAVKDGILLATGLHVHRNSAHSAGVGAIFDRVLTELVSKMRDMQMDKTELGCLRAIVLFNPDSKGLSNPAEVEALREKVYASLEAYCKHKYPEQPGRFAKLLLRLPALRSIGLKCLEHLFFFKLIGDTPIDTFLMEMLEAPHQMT
The data set can be described thus: RXR homodimer co-transfection assay (antagonist) in CV-1 cells. It is filed as cell-based. The settings on record: for IC50: in the presence of 3.2×10^−8 M LGD1069, read-out: RXR Antagonist CTF IC50. The text has this:
In the co-transfection assay, cloned cDNA for one or more IRs (e.g. human RARα, RXRα, or PPARγ), alone or in combination (i.e. for heterodimer assays) under the control of a constitutive promoter (e.g., the SV 40, RSV or CMV promoter) is introduced by transfection (a procedure to introduce exogenous genes into cells) into a background cell substantially devoid of endogenous IRs. These introduced gene(s) direct the recipient cells to make the IR protein(s) of interest. A further gene is also introduced (co-transfected) into the same cells in conjunction with the IR gene(s). This further gene, comprising the cDNA for a reporter protein, such as firefly luciferase (LUC), controlled by an appropriate hormone responsive promoter containing a hormone response element (HRE). This reporter plasmid functions as a reporter for the transcriptional-modulating activity of the target IR(s). Thus, the reporter acts as a surrogate for the products (mRNA then protein) normally expressed by a gene under control of the target receptor(s) and their native hormone(s). The co-transfection assay can detect small molecule agonists or antagonists, including partial agonists and antagonist, of target IRs. Exposing the transfected cells to an agonist ligand compound increases reporter activity in the transfected cells. This activity can be conveniently measured, e.g., by increasing luciferase production and enzymatic activity, which reflects compound-dependent, IR-mediated increases in reporter transcription. […] Increasing concentrations of an antagonist will decrease the reporter signal (e.g., luciferase production). The co-transfection assay is therefore useful to detect both agonists and antagonists of specific IRs. Furthermore, it determines not only whether a compound interacts with a particular IR, but whether this interaction mimics (agonizes) or blocks (antagonizes) the effects of native or synthetic regulatory molecules on target gene expression, as well as the specificity and strength of this interaction. […] To determine agonist and antagonist activity of the modulator compounds of the present invention, the CV-1 cells were transiently transfected by calcium phosphate coprecipitation according to the procedure of Berger et al., 41 J. Steroid Biochem. Mol. Biol., 733 (1992) with the receptor expressing plasmid […] et al., 345 Nature, 224 (1990), the disclosures of which are herein incorporated by reference at a concentration of 10 ng/well. The receptor expression plasmid was cotransfected along with a reporter plasmid at 50 ng/well, the internal control plasmid pRS-β-Gal at 50 ng/well and filler DNA, pGEM, at 90 ng/well. The reporter plasmid […], which contains an RXRE (retinoid X receptor response element, as described in Mangelsdorf et al., 66 Cell, 555 (1991), the disclosure of which is herein incorporated by reference, was used in transfections for the RXR homodimer assay. This reporter plasmid contains the cDNA for firefly luciferase (LUC) under the control of a promoter containing the RXR response element. As noted above, pRS-β-Gal, coding for constitutive expression of E. coli β-galactosidase (β-Gal), was included as an internal control for evaluation of transfection efficiency and compound toxicity. Six hours after transfection, media was removed and the cells were washed with phosphate-buffered saline (PBS). Media containing compounds of the present invention in concentrations ranging from 10^-10 to 10^-5 M were added to the cells. […] Ligand Pharmaceuticals, Inc.), compounds with known agonist activity on RXRs, were added at similar concentrations to provide a reference point for analysis of the agonist activity of the compounds of the present invention. […] Ligand Pharmaceuticals, Inc.). Retinoid purity was established as greater than 99% by reverse phase high-performance liquid chromatography. Retinoids were dissolved in dimethylsulfoxide for use in the transcriptional activation assays. Two to three replicates were used for each sample. […]

Data set [2] can be described thus: Metabolic stability in mouse liver microsomes. It is filed as in vitro ADME. The settings on record: 20 min incubation, 37° C., NADPH. The procedure:
A solution containing 1130 μL of 100 mM sodium phosphate buffer, pH 7.4, 20 μL of a 25 mg/mL CD-1 mouse liver microsomal suspension in 100 mM sodium phosphate buffer, pH 7.4, and 830 μL of a 4 mg/mL NADPH solution in 100 mM sodium phosphate buffer, pH 7.4, was prepared in a glass test tube, mixed on a vortexer, and incubated in a shaking water bath at 37° C. for 3 min. A test compound was dissolved in 10% DMSO/90% methanol to a final concentration of 400 μM, and 20 μL was added to the above solution after the 3 min. incubation. The solution was mixed on a vortexer, and incubated at 37° C. in the shaking water bath. After 0, 5, 10 and 20 min incubation, 75 μL aliquots of the incubation solution were removed in triplicate and each aliquot was added to a 75 μL solution that contained 2 μM of an internal standard in 50% acetonitrile/50% 20 mM ZnSO4 and 20 mM NaOH in water. Samples were mixed on a vortexer, and centrifuged at 10° C. for 25 min at 3000 rpm. The supernatant was separated from the microsomal pellet and analyzed for the test compound by electrospray negative ionization using a Micromass Platform LCZ mass spectrometer equipped with a Shimadzu 10AD VP pump, and Shimadzu 10AD UP autosampler. […] Peak area ratios of the test compound to internal standard at each time point were compared to the 0 min. time point to assess metabolic stability. […]
Background: Liver microsomes are vesicles of endoplasmic reticulum, rich in cytochrome P450 enzymes.

Setting [3] is: CV-1 cells, antagonist efficacy as % of maximal inhibition, read-out: RXR Antagonist CTF % Efficacy.

Read-outs that look alike come from different tables or passages of the source.

The IC50 is the concentration that inhibits the measured activity by half. Regarding `C/C(=C/C=C(F)/C(C)=C/C(=O)O)c1cc(C(C)(C)C)cc(C(C)(C)C)c1OCC(F)F` [Example 1, 7-[3,5-di-tert-butyl-2-(2,2-difluoroethoxy)-phenyl]4-fluoro-3-methyl-octa-2,4,6-trienoic acid], the Emax in data set [1] (setting [3]) worked out at 100%. In data set [1] (CV-1 cells), the IC50 was 4840 nM. Moreover, the “Metabolic stability (mouse microsomes): Difference from reference compound at 20 min.” value in data set [2] was 29.295%.
With `C/C(=C/C(F)=C/C(C)=C/C(=O)O)c1cc(C(C)(C)C)cc(C(C)(C)C)c1OCC(F)F` [Example 2, 7-[3,5-Di-tert-butyl-2-(2,2-difluoroethoxy)-phenyl]-5-fluoro-3-methyl-octa-2,4,6-trienoic acid], the Emax in data set [1] (setting [3]) turned out to be 100%. In addition, the IC50 in data set [1] (CV-1 cells) turned out to be 8710 nM. Besides, in data set [2], the “Metabolic stability (mouse microsomes): Difference from reference compound at 20 min.” value is on record as 18.300%.
`CCCCOc1c(\C(C)=C/C=C/C(=C/C(=O)O)C(F)(F)F)cc(C(C)C)cc1C(C)C` [Example 3, (2Z,4E,6Z)-7-(2-Butoxy-3,5-diisopropylphenyl)-3-trifluoromethyl-octa-2,4,6-trienoic acid]: the Emax in data set [1] (setting [3]) worked out at 83%. Also, in data set [1] (CV-1 cells), the IC50 came out at 921 nM.
In the case of `CCCCOc1c(\C(C)=C/C=C/C(=C\C(=O)O)C(F)(F)F)cc(C(C)C)cc1C(C)C` [Example 4, (2E,4E,6Z)-7-(2-Butoxy-3,5-diisopropylphenyl)-3-trifluoromethyl-octa-2,4,6-trienoic acid], the Emax in data set [1] (setting [3]) was 29%.
Regarding `CCOc1c(\C(=C/C=C/C(C)=C/C(=O)O)C(F)(F)F)cc(C(C)(C)C)cc1C(C)(C)C` [Example 5, (2E,4E,6E)-3-methyl-7-(2-ethoxy-3,5-di-tert-butylphenyl)-8,8,8-trifluoroocta-2,4,6-trienoic acid], the Emax in data set [1] (CV-1, read-out: RXR Antagonist CTF % Efficacy) was determined as 30%. Further, the 50% inhibitory concentration (IC50) in data set [1] (CV-1 cells) was 38 nM.
